Activity calls are given as the source filed them. No cut-off for these calls is given here.
System: PBMC
Experiment: Inhibition of LPS-stimulated TNF-alpha release in human PBMC at 600 ng/ml after 20 hrs by ELISPOT test
Assay type: functional, cell-based

SMILES: C[C@@H]1C[C@H]2[C@@H]3CCC4=CC(=O)C=C[C@]4(C)[C@@]3(F)[C@@H](O)C[C@]2(C)[C@@]1(O)C(=O)CO
- inhibition: Active

Reference: ChEMBL document CHEMBL3877318, “Cystatin C peptidomimetic derivative with antimicrobial properties as a potential compound against wound infections” (Bioorg Med Chem, 2017)
